In BindingDB's records for doi:10.1073/pnas.0606956103 (Targegen, 2006):

What was measured:
Test in all cases: Determination of PI3K Activity
Settings in all cases: pH 7.4; 22 °C
[1] = target: Phosphatidylinositol 3-kinase regulatory subunit alpha/4,5-bisphosphate 3-kinase catalytic subunit delta isoform (Homo sapiens, UniProt O00329)
[2] = target: Phosphatidylinositol 3-kinase regulatory subunit alpha/4,5-bisphosphate 3-kinase catalytic subunit beta isoform (Homo sapiens, UniProt P42338)
[3] = target: Phosphatidylinositol 3-kinase regulatory subunit alpha/4,5-bisphosphate 3-kinase catalytic subunit alpha isoform (Homo sapiens, UniProt P42336)
Phosphatidylinositol 3-kinase regulatory subunit alpha/4,5-bisphosphate 3-kinase catalytic subunit alpha isoform, sequence (P27986 whole entry, canonical isoform): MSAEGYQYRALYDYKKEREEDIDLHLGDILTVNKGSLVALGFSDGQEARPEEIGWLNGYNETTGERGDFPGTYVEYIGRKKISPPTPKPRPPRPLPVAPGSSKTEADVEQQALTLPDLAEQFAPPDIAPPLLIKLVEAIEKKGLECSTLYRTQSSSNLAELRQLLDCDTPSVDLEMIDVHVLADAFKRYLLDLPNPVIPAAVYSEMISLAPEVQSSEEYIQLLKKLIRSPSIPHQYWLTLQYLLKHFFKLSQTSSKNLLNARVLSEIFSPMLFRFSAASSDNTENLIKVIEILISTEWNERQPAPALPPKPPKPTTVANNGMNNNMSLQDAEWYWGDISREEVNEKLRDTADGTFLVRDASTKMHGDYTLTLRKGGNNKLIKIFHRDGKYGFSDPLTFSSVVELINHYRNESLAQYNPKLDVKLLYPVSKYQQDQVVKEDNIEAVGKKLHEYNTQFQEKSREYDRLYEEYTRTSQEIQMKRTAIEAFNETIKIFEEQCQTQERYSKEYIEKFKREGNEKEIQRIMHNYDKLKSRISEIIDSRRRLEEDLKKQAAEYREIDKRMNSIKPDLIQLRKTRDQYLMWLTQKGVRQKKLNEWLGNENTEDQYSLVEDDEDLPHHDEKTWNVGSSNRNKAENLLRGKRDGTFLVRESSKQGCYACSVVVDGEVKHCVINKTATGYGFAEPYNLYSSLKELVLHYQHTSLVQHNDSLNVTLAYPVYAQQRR
Phosphatidylinositol 3-kinase regulatory subunit alpha/4,5-bisphosphate 3-kinase catalytic subunit alpha isoform, sequence (P42336 whole entry, canonical isoform): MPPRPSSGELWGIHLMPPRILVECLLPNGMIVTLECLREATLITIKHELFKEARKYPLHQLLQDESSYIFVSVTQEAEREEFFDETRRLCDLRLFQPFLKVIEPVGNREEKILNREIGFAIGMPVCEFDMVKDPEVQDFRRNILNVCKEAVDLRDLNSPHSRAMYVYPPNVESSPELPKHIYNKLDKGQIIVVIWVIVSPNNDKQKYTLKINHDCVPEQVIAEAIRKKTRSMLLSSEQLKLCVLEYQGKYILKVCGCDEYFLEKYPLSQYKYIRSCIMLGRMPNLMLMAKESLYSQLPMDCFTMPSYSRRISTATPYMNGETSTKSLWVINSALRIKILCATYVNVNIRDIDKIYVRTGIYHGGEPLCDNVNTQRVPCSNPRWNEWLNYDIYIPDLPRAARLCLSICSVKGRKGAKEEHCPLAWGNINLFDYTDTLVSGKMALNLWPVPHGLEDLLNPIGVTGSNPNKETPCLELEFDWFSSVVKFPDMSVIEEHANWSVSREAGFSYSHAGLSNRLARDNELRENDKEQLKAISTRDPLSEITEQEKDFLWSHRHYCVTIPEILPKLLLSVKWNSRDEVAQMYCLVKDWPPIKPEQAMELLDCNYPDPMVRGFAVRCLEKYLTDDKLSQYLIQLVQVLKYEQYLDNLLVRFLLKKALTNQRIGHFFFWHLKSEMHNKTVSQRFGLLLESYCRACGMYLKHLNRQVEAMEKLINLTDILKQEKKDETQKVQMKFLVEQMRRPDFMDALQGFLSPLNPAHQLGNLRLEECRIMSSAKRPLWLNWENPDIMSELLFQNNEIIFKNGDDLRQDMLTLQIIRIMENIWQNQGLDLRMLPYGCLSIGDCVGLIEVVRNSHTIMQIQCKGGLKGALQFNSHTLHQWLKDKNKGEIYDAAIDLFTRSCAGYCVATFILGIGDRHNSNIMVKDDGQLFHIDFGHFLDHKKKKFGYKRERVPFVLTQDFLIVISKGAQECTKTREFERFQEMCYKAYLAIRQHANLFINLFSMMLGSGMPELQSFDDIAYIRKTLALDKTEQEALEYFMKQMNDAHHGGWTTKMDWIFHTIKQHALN

Phosphatidylinositol 3-kinase regulatory subunit alpha/4,5-bisphosphate 3-kinase catalytic subunit delta isoform, sequence (P27986 whole entry, canonical isoform): as the sequence (P27986 whole entry, canonical isoform) above
Phosphatidylinositol 3-kinase regulatory subunit alpha/4,5-bisphosphate 3-kinase catalytic subunit delta isoform, sequence (O00329 whole entry, canonical isoform): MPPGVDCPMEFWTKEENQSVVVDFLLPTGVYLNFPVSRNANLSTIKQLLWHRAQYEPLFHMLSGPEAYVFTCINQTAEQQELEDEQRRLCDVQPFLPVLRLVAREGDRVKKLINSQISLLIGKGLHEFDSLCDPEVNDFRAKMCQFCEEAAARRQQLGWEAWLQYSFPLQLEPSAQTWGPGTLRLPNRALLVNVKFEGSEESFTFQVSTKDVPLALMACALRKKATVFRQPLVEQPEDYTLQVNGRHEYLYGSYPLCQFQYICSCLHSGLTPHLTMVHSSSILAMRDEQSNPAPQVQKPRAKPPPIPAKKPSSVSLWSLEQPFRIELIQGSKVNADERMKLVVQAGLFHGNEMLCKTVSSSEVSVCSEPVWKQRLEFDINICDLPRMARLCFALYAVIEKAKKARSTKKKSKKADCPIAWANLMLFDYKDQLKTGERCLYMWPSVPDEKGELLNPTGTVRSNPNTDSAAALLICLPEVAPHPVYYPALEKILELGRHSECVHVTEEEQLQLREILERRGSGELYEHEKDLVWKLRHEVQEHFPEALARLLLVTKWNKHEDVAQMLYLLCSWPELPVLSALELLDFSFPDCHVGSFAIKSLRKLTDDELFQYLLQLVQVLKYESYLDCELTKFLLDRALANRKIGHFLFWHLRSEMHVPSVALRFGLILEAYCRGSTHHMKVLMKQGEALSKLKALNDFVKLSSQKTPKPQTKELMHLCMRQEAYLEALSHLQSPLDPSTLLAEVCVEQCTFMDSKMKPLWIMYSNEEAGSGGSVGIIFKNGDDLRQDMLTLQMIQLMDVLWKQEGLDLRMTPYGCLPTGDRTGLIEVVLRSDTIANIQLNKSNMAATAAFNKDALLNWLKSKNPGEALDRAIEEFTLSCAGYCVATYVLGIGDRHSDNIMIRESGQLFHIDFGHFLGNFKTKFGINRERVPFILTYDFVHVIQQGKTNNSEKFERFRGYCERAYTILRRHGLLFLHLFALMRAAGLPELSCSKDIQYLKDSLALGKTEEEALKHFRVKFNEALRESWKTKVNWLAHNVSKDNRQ
Phosphatidylinositol 3-kinase regulatory subunit alpha/4,5-bisphosphate 3-kinase catalytic subunit beta isoform, sequence (P27986 whole entry, canonical isoform): as the sequence (P27986 whole entry, canonical isoform) above
Phosphatidylinositol 3-kinase regulatory subunit alpha/4,5-bisphosphate 3-kinase catalytic subunit beta isoform, sequence (P42338 whole entry, canonical isoform): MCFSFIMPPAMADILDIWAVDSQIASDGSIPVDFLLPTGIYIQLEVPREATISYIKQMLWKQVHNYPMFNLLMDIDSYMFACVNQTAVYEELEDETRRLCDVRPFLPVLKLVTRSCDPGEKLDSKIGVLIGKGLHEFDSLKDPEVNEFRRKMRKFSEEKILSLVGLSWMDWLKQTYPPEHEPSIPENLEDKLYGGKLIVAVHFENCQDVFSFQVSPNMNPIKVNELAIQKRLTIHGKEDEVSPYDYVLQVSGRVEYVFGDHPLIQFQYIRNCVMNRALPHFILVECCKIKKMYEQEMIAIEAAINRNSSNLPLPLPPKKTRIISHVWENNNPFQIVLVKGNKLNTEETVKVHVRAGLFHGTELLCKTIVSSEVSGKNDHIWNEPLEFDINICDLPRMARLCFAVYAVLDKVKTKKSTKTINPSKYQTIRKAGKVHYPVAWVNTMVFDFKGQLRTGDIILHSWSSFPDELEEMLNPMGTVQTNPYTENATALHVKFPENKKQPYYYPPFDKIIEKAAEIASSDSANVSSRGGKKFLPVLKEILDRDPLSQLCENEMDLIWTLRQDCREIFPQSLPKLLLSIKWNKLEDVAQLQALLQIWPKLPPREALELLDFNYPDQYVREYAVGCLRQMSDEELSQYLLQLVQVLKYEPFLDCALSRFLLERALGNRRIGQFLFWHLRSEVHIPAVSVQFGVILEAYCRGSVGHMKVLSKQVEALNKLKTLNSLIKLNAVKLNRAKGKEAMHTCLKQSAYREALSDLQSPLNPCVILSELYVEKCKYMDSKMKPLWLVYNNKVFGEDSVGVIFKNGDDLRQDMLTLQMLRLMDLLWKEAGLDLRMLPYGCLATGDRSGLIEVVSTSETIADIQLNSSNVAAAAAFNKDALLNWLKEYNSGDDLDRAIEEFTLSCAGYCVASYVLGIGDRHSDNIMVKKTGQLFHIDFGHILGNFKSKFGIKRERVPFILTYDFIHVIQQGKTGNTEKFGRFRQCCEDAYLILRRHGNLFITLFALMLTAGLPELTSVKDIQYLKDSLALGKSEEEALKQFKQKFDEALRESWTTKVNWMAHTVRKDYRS

Compound	IC50 [1] [nM]	IC50 [2] [nM]	IC50 [3] [nM]
O=c1cc(N2CCOCC2)oc2c(-c3ccccc3)cccc12	561		
Nc1nc(N)c2nc(-c3cccc4[nH]ccc34)cnc2n1 [6-(1H-indol-4-yl)pteridine-2,4-diamine]	64	107	1200
